Experiments:
[1] = Water solubility of the modifier; format: physicochemical
[2] = Alcohol solubility of the modifier; format: physicochemical; details: organic solvent or mixture, alcohol (diacetone alcohol or ethanol)

Row | Structure (SMILES) | solubility [1] | solubility [2]
1 | NC1=NC2=NC(N)=NC3=NC(N)=NC(=N1)N23 [Melem, melem] | < 3000 µg/mL | < 3000 µg/mL
2 | Nc1nc(N)nc(N)n1 [Melamine, melamine] | ≥ 3000 µg/mL | ≥ 3000 µg/mL

Source: patent publication US20250316716A1, “ELECTROCHEMICAL OXYGEN REDUCTION CATALYST” (TOYOTA JIDOSHA KABUSHIKI KAISHA, priority 2024, published 2025)
